Reference: patent US8513271B2, “Pyrimidine compounds as delta opioid receptor modulators” (Janssen Pharmaceutica, NV, priority 2009, dated 2013)
Read-outs that look alike come from different tables or passages of the source.

Target: T1, delta opioid receptor (Mus musculus, UniProt P32300)
T1 construct: NG108-15 cell membranes were purchased from Applied Cell Sciences (Rockville, Md.); host or cells: NG108-15 cell membranes
Test: [35S]GTPγS binding assay in NG108-15 cell membranes (delta opioid functional assay), 200 nM screen
Type: biochemical
Conditions: NG108-15 cell membranes; for GTPγS δ-RelEfficacy @200 nM: 200 nM test compound, relative to calculated max of SNC80 dose response curve; for GTPγS δ-RelEfficacy @200 nM / EC50: averages if tested more than once; for GTPγS δ-opioid receptor Rel Efficacy: relative efficacy from dose response

[1] = GTPγS δ-opioid receptor EC50 (μM)
[2] = read-out: GTPγS δ-opioid receptor EC50

T1 sequence (P32300 whole entry): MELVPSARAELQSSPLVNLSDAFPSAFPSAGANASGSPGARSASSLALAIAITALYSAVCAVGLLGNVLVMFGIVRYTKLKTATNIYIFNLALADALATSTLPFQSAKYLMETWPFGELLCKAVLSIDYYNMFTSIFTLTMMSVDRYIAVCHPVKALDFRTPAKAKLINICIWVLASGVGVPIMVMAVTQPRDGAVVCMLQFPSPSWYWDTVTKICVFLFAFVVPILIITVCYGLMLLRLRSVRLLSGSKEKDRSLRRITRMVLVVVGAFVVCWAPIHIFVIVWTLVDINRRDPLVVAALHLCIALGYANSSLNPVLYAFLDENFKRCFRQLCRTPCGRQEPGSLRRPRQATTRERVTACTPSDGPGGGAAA

Compound	GTPγS δ-RelEfficacy @200 nM	EC50 [1] [µM]	GTPγS δ-opioid receptor Rel Efficacy	EC50 [2] [µM]
N#Cc1cncc(-c2ncc(NC[C@@H]3CCCN3)c(Oc3cccc(O)c3)n2)c1 [Cpd 231]	1.159	0.005	1.113	
COc1ccc(Oc2nc(-c3cncc(C)c3)ncc2N[C@H]2CCCNC2)cc1 [Cpd 259]		0.0749	1.030	
Cc1ccc(Oc2nc(-c3cncc(F)c3)ncc2NC[C@@H]2CCCN2)cc1F [Cpd 185]	0.447		1.014	0.101
COc1ccc(Oc2nc(-c3cccnc3)ncc2N[C@H]2CCC[C@@H](N)C2)cc1 [Cpd 321]		0.005	1.022	
Cc1cccc(Oc2nc(-c3cncc(Cl)c3)ncc2NC[C@@H]2CCCN2)c1 [Cpd 201]	0.148			
COc1ccc(Oc2nc(-c3cncc(OC)c3)ncc2N[C@H]2CCC[C@@H](N)C2)cc1 [Cpd 312, N-[4-(4-Methoxy-phenoxy)-2-(5-methoxy-pyridin-3-yl)-pyrimidin-5-yl]-cyclohexane-(1R,3S)-1,3-diamine]		0.00435	1.007	
COc1ccc(Oc2nc(-c3cncnc3)ncc2N(C[C@@H]2CCCN2)C(C)=O)cc1 [Cpd 181, N-[4-(4-Methoxy-phenoxy)-[2,5′]bipyrimidinyl-5-yl]-N-pyrrolidin-2-(S)-ylmethyl-acetamide]	0.139			
COc1ccc(Oc2nc(-c3cncc(F)c3)ncc2NC[C@@H]2CCCN2)cc1C [Cpd 205]	0.609	0.044	1.178	
c1cncc(Cc2ccc(Oc3nc(-c4cccnc4)ncc3NC[C@@H]3CCCN3)cc2)c1 [Cpd 209, [2-Pyridin-3-yl-4-(4-pyridin-3-ylmethyl-phenoxy)-pyrimidin-5-yl]-pyrrolidin-2-(S)-ylmethyl-amine]	0.002			
Cc1cccc(Oc2nc(-c3cncc(F)c3)ncc2NC[C@@H]2CCCN2)c1 [Cpd 202]	0.122			
Nc1ccc(Oc2nc(-c3cncc(F)c3)ncc2NC[C@@H]2CCCN2)cc1 [Cpd 198, [4-(4-Amino-phenoxy)-2-(5-fluoro-pyridin-3-yl)-pyrimidin-5-yl]-pyrrolidin-2-(S)-ylmethyl-amine]	0.513		1.050	0.118
COc1ccc(Oc2nc(-c3cncc(C#N)c3)ncc2N2CC(CN)C2)cc1 [Cpd 331]	0.764		0.928	0.108
CCc1ccc(Oc2nc(-c3cncc(F)c3)ncc2NC[C@@H]2CCCN2)cc1 [Cpd 182]	0.470		1.065	0.377
COc1ccc(Oc2nc(-c3cncc(C#N)c3)ncc2N2CCNC(=O)C2)cc1 [Cpd 335]	0.050			
O=CNc1ccc(Oc2nc(-c3cccnc3)ncc2NC[C@@H]2CCCN2)cc1 [Cpd 216]	0.406		0.969	0.494
COc1ccc(Oc2nc(-c3cccnc3)ncc2NC2CNC2)cc1 [Cpd 226]	0.320			
COc1ccc(Oc2nc(-c3ccccc3)ncc2N2CCNCC2)cc1 [Cpd 324]	0.519		1.045	0.428
COc1ccc(Oc2nc(-c3cncc(SC)c3)ncc2NCc2cnc[nH]2)cc1 [Cpd 289]	0.402			
Cc1cccc(Oc2nc(-c3cncc(C#N)c3)ncc2NC[C@@H]2CCCN2)c1 [Cpd 200]	0.289			

Compound	GTPγS δ-RelEfficacy @200 nM	EC50 [1] [µM]	GTPγS δ-opioid receptor Rel Efficacy	EC50 [2] [µM]
COc1ccc(Oc2nc(-c3cncc(C#N)c3)ncc2N2CCC[C@@H](N)C2)cc1 [Cpd 330]	0.547		0.894	0.051
COc1ccc(Oc2nc(-c3cncc(C#N)c3)ncc2NC[C@@H]2CCCN2)cc1C [Cpd 204]	0.911	0.026	0.982	
CC(=O)Oc1cccc(Oc2nc(-c3cncc(C#N)c3)ncc2NC[C@@H]2CCCN2)c1 [Cpd 228]	1.039	0.006	1.082	
COc1ccc(Oc2nc(-c3cccnc3)ncc2NC[C@@H]2CCCN2)cc1C [Cpd 211]	0.814		1.050	0.106
COc1ccc(Oc2nc(-c3cncc(C#N)c3)ncc2N2CCC[C@H](N)C2)cc1 [Cpd 329]	0.475		1.006	0.138
COc1ccc(Oc2nc(-c3cncc(SC)c3)ncc2NC2CCCC(N)C2)cc1 (single isomer, unassigned) [Cpd 319]		0.112	0.871	
COc1ccc(Oc2nc(-c3cccnc3)ncc2NC[C@@H]2C[C@@H](F)CN2)cc1 [Cpd 196]	0.800	0.0693	1.146	
CCc1ccc(Oc2nc(-c3cccnc3)ncc2NC[C@@H]2CCCN2)cc1 [Cpd 184]	0.497		1.271	0.418
COc1ccc(Oc2nc(-c3cccnc3)ncc2NC2CCCC(N)C2)cc1 (single isomer, unassigned) [Cpd 307]	0.880	0.011	1.191	
COc1cncc(-c2ncc(NC[C@@H]3CCCN3)c(Oc3cccc(OC(C)=O)c3)n2)c1 [Cpd 250, Acetic acid 3-{2-(5-methoxy-pyridin-3-yl)-5-[(pyrrolidin-2-(S)-ylmethyl)-amino]-pyrimidin-4-yloxy}-phenyl ester]	0.912	0.026	1.022	
CCc1ccc(Oc2nc(-c3cncc(C#N)c3)ncc2NC[C@@H]2C[C@@H](F)CN2)cc1 [Cpd 195]	0.477		1.119	0.194
O=C(c1cccc(Oc2nc(-c3cncc(F)c3)ncc2NC[C@@H]2CCCN2)c1)N1CCCC1 [Cpd 171]	0.257			
O=CNc1ccc(Oc2nc(-c3cncc(F)c3)ncc2NC[C@@H]2CCCN2)cc1 [Cpd 223]	0.802		0.986	0.152
COc1ccc(Oc2nc(-c3cncc(C#N)c3)ncc2N[C@H]2CCCNC2)cc1 [Cpd 207]	0.963		1.047	
COc1ccc(Oc2nc(-c3cccnc3)ncc2NC[C@H]2CCCCN2)cc1 [Cpd 267]			0.920	0.121
COc1ccc(Oc2nc(-c3cccnc3)ncc2NC2CCCCC2N)cc1 (single isomer, unassigned) [Cpd 308]	0.140			
CS(=O)(=O)Nc1ccc(Oc2nc(-c3cncc(F)c3)ncc2NC[C@@H]2CCCN2)cc1 [Cpd 213, N-(4-{2-(5-Fluoro-pyridin-3-yl)-5-[(pyrrolidin-2-(S)-ylmethyl)-amino]-pyrimidin-4-yloxy}-phenyl)-methanesulfonamide]	0.079			
COc1ccc(Oc2nc(-c3cncc(C#N)c3)ncc2N2CCNC[C@H]2C)cc1 [Cpd 344]	0.808	0.047	1.089	
